In patent publication US9402818B2, “Use of amides of mono- and dicarboxylic acids in the treatment of renal diseases” (priority 2010, dated 2016):
Several values for one entry are separate records, joined by “and”; a condition that tells them apart may be missing. Equal values may be shown once.

Key:
[1] = tested on: renal function of nephropathic patients; assay: Effect of ultra-micronized palmitoylethanolamide in nephropathic patients; type: in vivo, human; conditions: 600 mg tablets, 2 per day, 60 days; for GFR Glomerulal Filtration Rate (Creatinine Clearance) T 60: Cockcroft-Gault; for Glycemia under fasting T 60: single patients Paz-04, -05, -06, diabetic nephropathy, compensated with insulin, T 0 values 210, 240, 280 mg/dl
Procedure: Palmitoylethanolamide was administered to patients in form of tablets each containing 600 mg of active ingredient in ultra-micronized form; 2 tablets per day (one every 12 hours, after meals) were administered to patients for 60 consecutive days).
Determination of the GRF (Glomerular Filtration Rate) by the creatinine endogenous marker was carried out according to the […] criteria (K/DOQI clinical practice guidelines for chronic kidney disease, 2002), using the Cockcroft-Gault equation (Cockcroft D. W. et al, 1976).

TGF-1β [2] = assay: TGF-1β in renal cortex by ELISA, streptozotocin mice; type: in vivo, male mice C57BL6/J; conditions: pg/mg of total proteins, diabetic mice
Procedure: (§1) The evaluation of TGF-1β on the renal tissue was administered through the following method: small pieces of the renal cortex, carefully separated and weighed, were homogenised in Tris-HCl 10 mM buffer at 7.4 pH containing 2M of NaCl, 1 mM PMSF (phenylmethylsulfonyl fluoride, as a protease inhibitor), 1mM EDTA and 0.01% of Tween 80. The samples were centrifuged at 19,000 rpm for 30 minutes and the supernatant was collected, measured and preserved at −80° C. The evaluation of the TGF-1β was made using the ELISA commercial kit (Quantikine Kit™, Res & Diagn Systems, Minneapolis, USA) and the value expressed in pg/mg of total proteins. The concentration of total proteins was measured using the Bio-Rad commercial test (Hercules, Calif., USA).

[3] = tested on: renal damage after administration of streptozotocin to mice; assay: Renal damage after administration of streptozotocin to mice (diabetic nephropathy model); type: in vivo, male mice C57BL6/J
Text: The model of streptozootocin in mice represents a classic and known model of hyperglycemia capable of inducing a progressive renal damage into the animal leading to the renal disease with clear alterations of the characteristic parameters.
The model applied is as follows: male mice C57BL6/J were kept under standard conditions of care. Diabetes was induced into 8-weeks old mice and with an average weight of about 22 g by means of an intraperitoneal injection of streptozotocin in citrate buffer (55 mg/Kg of weight/day) for 5 consecutive days. The control animals were treated in the same conditions using the citrate buffer alone.
Treatments were administered orally, by means of a tube, using both micronized Palmitoylethanolamide- PEAm (10.0 mg/Kg) suspended in a carrier and ultra-micronized palmitoylethanolamide PEAum (10.0 mg/Kg) suspended in a carrier; the results were compared with control animals treated with the carrier alone. A 0.5% carboxymethyl cellulose was used as a carrier.
Diethanolamide of fumaric acid was administered in sterile aqueous saline solution by intraperitoneal injection (10.0 mg/Kg); the results were compared with the animals treated with sterile saline solution alone.
Administration of the carrier and of the two different suspensions containing palmitoylethanolamide or of the injection solution containing diethanolamide of fumaric acid, were performed once per day starting from the day of the last administration of Streptozotocin. Prior to sacrifice, the blood was collected from the saphenous vein using a micro syringe to determining, through conventional methods, the levels of glycemia, glycated haemoglobin and creatinine of the serum.

TGF-1β [4] = assay: TGF-1β in renal cortex by ELISA, Cisplatin mice; type: in vivo, male mice C57BL6/J; conditions: pg/mg of total proteins
Procedure: as §1, with “The level of TGF-1β” for “The evaluation of TGF-1β”, “tissue was measured through the” for “tissue was administered through the”, “buffer at a 7.4 pH” for “buffer at 7.4 pH”, “protease inhibitor), 1 mM EDTA and” for “protease inhibitor), 1mM EDTA and”, “C. The amount of the” for “C. The evaluation of the”, “TGF-1β was measured using the” for “TGF-1β was made using the”

[5] = tested on: renal damage after administration of Cisplatin to mice; assay: Renal damage after administration of Cisplatin to mice (nephrotoxicity model); type: in vivo, male mice C57BL6/J; conditions: for Body weight: Cisplatin mice (20 mg/Kg i.p.); for Concentration of creatinine in the serum / Kidney weight/body weight / Amount of albumin excreted with urine (18 hrs prior to sacrifice): Cisplatin mice
Text: Cisplatin, a known and widely used chemotherapy agent, notoriously produces a serious renal damage in 50% of the patients subjected to treatment. Experimentally an animal model is used in mice, in which Cisplatin induces serious nephrotoxicity with ensuing renal disease. The model applied is as follows: male mice C57BL6/J were kept under standard conditions of care. Nephrotoxicity was induced into 8-weeks old mice and with an average weight of about 23 g, by means of an intraperitoneal injection of Cisplatin dihydrochloride in saline solution (20 mg/Kg in one administration). The control animals were treated in the same conditions using the saline solution alone. The animals were sacrificed 72 hrs after treatment with Cisplatin.
6 treatments were administered orally, one each 12 hrs by means of a tube, using both micronized palmitoylethanolamide-PEAm (10.0 mg/Kg) suspended in a carrier and ultra-micronized palmitoylethanolamide-PEAum (10.0 mg/Kg) suspended in a carrier; the first treatment was carried out 12 hours prior to the administration of the Cisplatin. The results were compared with control animals treated with the carrier alone. A 0.5% carboxymethyl cellulose solution was used as the carrier.
Diethanolamide of fumaric acid was administered in sterile aqueous saline solution by intraperitoneal injection (10.0 mg/Kg) with posology analogous to that of PEA; the results were compared with animals treated with sterile saline solution alone.
Prior to sacrifice, the blood was collected from the saphenous vein using a micro syringe to measure, through conventional methods, the levels of creatinine of the serum.

Solubility in water = type: physicochemical
[6] = 10.0 mg/Kg orally once per day, carrier alone 24.2 ± 5.8, non-diabetic 7.5 ± 0.8, 10 mg/kg
[7] = 10.0 mg/Kg orally once per day in 0.5% carboxymethyl cellulose, carrier alone 25.12 ± 1.10, non-diabetic 27.82 ± 1.18, 10 mg/kg
[8] = 10.0 mg/Kg orally once per day, carrier alone 1.11 ± 0.02, non-diabetic 0.21 ± 0.01, 10 mg/kg
[9] = 10.0 mg/Kg orally once per day, carrier alone 8.65 ± 0.85, non-diabetic 6.65 ± 0.04, 10 mg/kg
[10] = 10.0 mg/Kg orally once per day, carrier alone 12.80 ± 0.44, non-diabetic 4.89 ± 0.05, 10 mg/kg
[11] = 10.0 mg/Kg orally once per day, carrier alone 340.5, non-diabetic 33.7, 10 mg/kg
[12] = 10.0 mg/Kg orally once per day, carrier alone 408.45 ± 33.12, non-diabetic 122.2 ± 5.62, 10 mg/kg
[13] = 10.0 mg/Kg orally every 12 hrs x6, carrier alone 25.3 ± 6.0, control 8.2 ± 0.7, 10 mg/kg
[14] = 10.0 mg/Kg orally every 12 hrs x6, sacrifice 72 hrs, carrier alone 23.10 ± 1.22, control 26.12 ± 1.11
[15] = 10.0 mg/Kg orally every 12 hrs x6, carrier alone 1.26 ± 0.05, control 0.22 ± 0.01, 10 mg/kg
[16] = 10.0 mg/Kg orally every 12 hrs x6, carrier alone 7.22 ± 0.80, control 6.44 ± 0.03, 10 mg/kg
[17] = 10.0 mg/Kg orally every 12 hrs x6, carrier alone 363.75, control 37.4, 10 mg/kg

SMILES | Level of TGF-1β (TGF-1β [2]; [6]) [pg/mg] | Body weight [3, 7] [g] | Concentration of creatinine in the serum [3, 8] [mg/dL] | Kidney weight/body weight [3, 9] | Glycated haemoglobin % [3, 10] [%] | Amount of albumin excreted with urine (18 hrs prior to sacrifice) [3, 11] | Glycemia [3, 12] [mg/dL] | TGF-1β level in renal cortex (pg/mg total protein) (TGF-1β [4]; [13]) [pg/mg] | Body weight [5, 14] [g] | Concentration of creatinine in the serum [5, 15] [mg/dL] | Kidney weight/body weight [5, 16] | Amount of albumin excreted with urine (18 hrs prior to sacrifice) [5, 17] | other results
CCCCCCCCCCCCCCCC(=O)NCCO [PEAum, Palmitoylethanolamide] | 10.3 ± 2.5 | 26.12 ± 1.21 | 0.44 ± 0.01 | 7.15 ± 0.38 | 11.01 ± 0.18 | 151.5 | 380.34 ± 34.16 | 9.4 ± 3.2 | 24.55 ± 1.09 | 0.48 ± 0.02 | 6.89 ± 0.42 | 175.9 | GFR Glomerulal Filtration Rate (Creatinine Clearance) T 60 ([1]; single patients Paz-01, -02, -03, chronic inflammatory nephropathy, T 0 values 26.4, 21.4, 20.7): 44.6 and 35.2 and 36.1; GFR Glomerulal Filtration Rate (Creatinine Clearance) T 60 ([1]; single patients Paz-04, -05, -06, diabetic nephropathy (diabetes type 2), T 0 values 18.9, 22.4, 21.8): 41.4 and 35.6 and 39.8; Glycemia under fasting T 60 ([1]; with 10 U ready insulin): 230 mg/dL; Glycemia under fasting T 60 ([1]; with 10 U ready plus 20 U retard insulin): 210 mg/dL; Glycemia under fasting T 60 ([1]; with 12 U retard insulin): 110 mg/dL
O=C(/C=C/C(=O)NCCO)NCCO [diethanolamide of fumaric acid, Diethanolamide of fumaric acid] |  |  |  |  |  |  |  |  |  |  |  |  | Solubility in water (Solubility in water): high solubility; Level of TGF-1β (TGF-1β [2]; 10.0 mg/Kg i.p. once per day, saline alone 25.3 ± 4.6, non-diabetic 7.5 ± 0.8): 11.7 ± 3.2 pg/mg; Body weight ([3]; 10.0 mg/Kg i.p. once per day in saline solution, saline alone 24.43 ± 1.15, non-diabetic 27.82 ± 1.18): 26.22 ± 1.02 g; Concentration of creatinine in the serum ([3]; 10.0 mg/Kg i.p. once per day, saline alone 1.51 ± 0.08, non-diabetic 0.21 ± 0.01): 0.51 ± 0.03 mg/dL; Kidney weight/body weight ([3]; 10.0 mg/Kg i.p. once per day, saline alone 9.00 ± 0.56, non-diabetic 6.65 ± 0.04): 7.02 ± 0.46; Glycated haemoglobin % ([3]; 10.0 mg/Kg i.p. once per day, saline alone 13.41 ± 0.63, non-diabetic 4.89 ± 0.05): 12.12 ± 0.26%; Amount of albumin excreted with urine (18 hrs prior to sacrifice) ([3]; 10.0 mg/Kg i.p. once per day, saline alone 315.05, non-diabetic 33.7): 135.7; Glycemia ([3]; 10.0 mg/Kg i.p. once per day, saline alone 406.32 ± 33.44, non-diabetic 122.2 ± 5.62): 386.19 ± 33.98 mg/dL; TGF-1β level in renal cortex (pg/mg total protein) (TGF-1β [4]; 10.0 mg/Kg i.p., saline alone 22.1 ± 4.3, control 8.2 ± 0.7): 9.1 ± 2.8 pg/mg; Body weight ([5]; 10.0 mg/Kg i.p. in saline solution, posology as PEA, saline alone 24.22 ± 1.45, control 26.12 ± 1.11): 24.15 ± 1.12 g; Concentration of creatinine in the serum ([5]; 10.0 mg/Kg i.p., saline alone 1.36 ± 0.02, control 0.22 ± 0.01): 0.83 ± 0.06 mg/dL; Kidney weight/body weight ([5]; 10.0 mg/Kg i.p., saline alone 8.15 ± 0.46, control 6.44 ± 0.03): 6.58 ± 0.26; Amount of albumin excreted with urine (18 hrs prior to sacrifice) ([5]; 10.0 mg/Kg i.p., saline alone 351.57, control 37.4): 181.4
CCCCCCCCCCCCCCCC(=O)NCCO [PEAm, Palmitoylethanolamide] | 15.0 ± 3.0 | 26.52 ± 1.08 | 0.81 ± 0.01 | 7.85 ± 0.44 | 11.32 ± 0.38 | 289.4 | 386.12 ± 36.76 | 15.8 ± 3.5 | 23.58 ± 1.13 | 0.92 ± 0.03 | 7.85 ± 0.34 | 270.90 | 
